Results: US7892755B2, “Screening method” (Takeda Pharmaceutical Company Limited, priority 2004, dated 2011)

Columns and labels:
[1] = target: T1, GPR35 (Homo sapiens, UniProt Q9HC97, S294R); assay: Changes in intracellular calcium levels on FLIPR, CHO-K1 cells transiently co-expressing GPR35 and Gα15; type: cell-based; set-up: The resulting fragment (ca. 1 kb) was introduced into vector pAKKO-111; expressed in transfected cells; host or cells: CHO-K1 (ATCC), transient transfection; conditions: Fluo-3AM, 0.3-10 μM shown for DNQX and ellagic acid (FIG. 1, 2)
Experimental: The CHO-K1 cell line (purchased from ATCC) was incubated in HAM F-12 medium (Invitrogen) supplemented with 10% fetal calf serum, unless otherwise indicated. On the day before transfection, the cells were inoculated at 4.5×10^5/10 cm^2 and incubated at 37° C. for 15 hours or more in a CO2 incubator adjusted to 5% CO2 concentration. Using Lipofectamine reagent (Invitrogen), transfection was performed according to modifications of the procedure attached to the reagent. When a 6-well plate was used as the incubator, the transfection was performed as follows. Two tubes each having a 1.5 ml volume were prepared and 100 μl each of Opti-MEM medium (Invitrogen) was dispensed in each tube. Next, 1 μg of the GPR35 expression vector obtained in REFERENCE EXAMPLE 1 and 0.5 μg of Gα15 expression vector (Guthrie cDNA Resource Center) were incorporated into one tube and in another tube, 6 μl of Lipofectamine reagent was charged, which were then mixed together. The mixture was settled for 20 minutes at room temperature. To the solution, 800 μl of Opti-MEM medium was added and the resulting solution mixture for transfection was added to the CHO-K1 cells, which had been previously washed with Opti-MEM medium. The cells were then incubated in a CO2 incubator for 6 hours. After the incubation, the cells were rinsed with PBS (Invitrogen), then detached by 0.05% trypsin-EDTA solution (Invitrogen) and recovered by centrifugal operation. The cells obtained were counted and diluted to 5×10^4 cells per 100 μl of the medium. The dilution was dispensed to a black walled 96-well plate (Costar) at 100 μl per well, followed by incubation overnight in a CO2 incubator. Various test samples were added to the CHO-K1 cells, in which the receptor was transiently expressed, by the transfection procedure described above, whereby changes in intracellular calcium levels were assayed on a FLIPR (Molecular Device).
To assay the changes in intracellular calcium levels on FLIPR, the following pretreatment was made. First, an assay buffer was prepared to add fluorescence dye Fluo-3AM (DOJIN) to the cells, or to wash the cells immediately before the FLIPR assay. A solution was prepared by adding 20 ml of 1M HEPES (pH 7.4) (DOJIN) to 1000 ml of HBSS (Invitrogen) (hereinafter HBSS/HEPES solution). To the solution, there was added 10 ml of a solution obtained by dissolving 710 mg of Probenecid (Sigma) in 5 ml of 1N NaOH and further adding 5 ml of HBSS/HEPES solution thereto and mixing them. The resulting solution was used as an assay buffer. Next, 50 μg of Fluo-3AM was dissolved in 21 μl of DMSO (DOJIN), and an equal volume of 20% pluronic acid (Molecular Probes) was added to the solution. After mixing them, the mixture was added to 10.6 ml of an assay buffer supplemented with 105 μl of fetal calf serum to give a fluorescence dye solution. After the medium for the transfected CHO-K1 cells was removed, the fluorescence dye solution was immediately dispensed at 100 μl each per well and incubation was carried out in a CO2 incubator for an hour to take up the fluorescence dye into the cells. The incubated cells were washed with the assay buffer described above and set on FLIPR. Test samples to be added to the receptor-expressed CHO-K1 cells were prepared using the assay buffer and simultaneously set on FLIPR.
After the pretreatment described above was made, changes in intracellular calcium levels by the addition of various test samples were assayed on FLIPR.

[2] = target: T1, GPR35; assay: Suppression of forskolin-increased intracellular cAMP levels in human GPR35-expressed CHO cell line; type: cell-based; set-up: The resulting fragment (ca. 1 kb) was introduced into vector pAKKO-111; expressed in transfected cells; conditions: 2 μM forskolin, 37° C., 30 minutes (FIG. 3)
Experimental: The human GPR35-expressed CHO cells obtained in REFERENCE EXAMPLE 1 were washed with an assay buffer (HBSS (Gibco/BRL) supplemented with 0.1% bovine serum albumin and 0.2 mM isobutylmethylxanthine), followed by incubation at 37° C. for 30 minutes under conditions of 5% CO2. DNQX and NBQX were diluted with the assay buffer and the dilutions were added to the cells at respective concentrations. Thereafter forskolin was added to become 2 μM. Incubation was performed at 37° C. for 30 minutes under conditions of 5% CO2. The culture supernatant was discarded and the intracellular cAMP level was assayed on a plate reader (EnVision, Perkin Elmer) in accordance with the protocol of cAMP Screen Kit (Applied Biosystems).

[3] = system: GPR35-GFP fusion protein; assay: Internalization of GPR35-GFP fusion protein expressed on CHO cells (Cellomics ArrayScan, MemCyto Above Threshold); type: cell-based, human; conditions: CHO cells stably expressing GPR35-GFP; 3 μM, 10 μM and 30 μM
Experimental: The CHO cell line, in which a protein wherein GFP was fused to the C-terminus of human GPR35 was stably expressed, was established using an expression plasmid for animal cells by publicly known methods. In assaying internalization of the protein, the cells at growth phase were plated at the concentration of 40000 cells/well on a 96-well plate (Packard, View-Plate™-96, Black), and cultured overnight at 37° C. under 5% CO2. First, the cells in the well were washed with assay buffer (HBSS (Gibco/BRL) supplemented with 0.1% bovine serum albumin (BSA)). Then, 100 μl each of the assay buffers containing 3 μM, 10 μM and 30 μM DNQX and NBQX was added to each well, followed by incubation at 37° C. under conditions of 5% CO2. Subsequently, 100 μl/well of a cell fixation solution (4% paraformaldehyde-containing PBS (free of Ca/Mg)) was added to the well, which was allowed to stand at room temperature for 30 minutes. The cell fixation solution was removed. […] The intracellular localization of GPR35-GFP fusion protein was assessed using MemCyto Above Threshold (cell ratio (unit %) over a specific parameter (MemCyto Intensity Ratio) representing the ratio of membrane/cytoplasmic localization of the protein to all cells in the well), which is one of the parameters of the GPCR Signaling Assay Protocol attached to the above system.

T1 sequence (Q9HC97 whole entry S294R, the tested form may be a part): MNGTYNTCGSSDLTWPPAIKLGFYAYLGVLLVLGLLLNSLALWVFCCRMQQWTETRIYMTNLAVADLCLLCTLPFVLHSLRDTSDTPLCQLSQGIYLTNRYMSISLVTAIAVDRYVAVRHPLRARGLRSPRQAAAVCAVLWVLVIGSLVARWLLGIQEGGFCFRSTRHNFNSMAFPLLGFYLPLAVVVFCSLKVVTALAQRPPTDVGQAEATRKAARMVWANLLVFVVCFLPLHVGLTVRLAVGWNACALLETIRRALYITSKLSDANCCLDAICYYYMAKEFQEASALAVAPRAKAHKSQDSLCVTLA

SMILES	response (increased intracellular calcium levels) [1]	decrease of intracellular cAMP levels increased by forskolin addition [2]	activity of inducing internalization of the GPR35-GFP protein (decreased MemCyto Above Threshold value) [3]
O=C1N=c2cc([N+](=O)[O-])c([N+](=O)[O-])cc2=NC1=O [DNQX, 6,7-dinitroquinoxaline-2,3-dione]	dose-dependently responded (increased intracellular calcium levels)	dose-dependent and specific decrease	dose-dependent internalization
NS(=O)(=O)c1cccc2c3c(cc([N+](=O)[O-])c12)=NC(=O)C(=O)N=3 [NBQX, 6-nitro-7-sulfamoylbenzo[f]quinoxaline-2,3-dione]	dose-dependently responded (increased intracellular calcium levels)	dose-dependent and specific decrease	dose-dependent internalization
